From ChEMBL document CHEMBL1275409, “Antimicrobial-resistant pathogens in intensive care units in Canada: results of the Canadian National Intensive Care Unit (CAN-ICU) study, 2005-2006” (2008)

Assays:
Format in all cases: functional
Escherichia coli [1] = assay: Antimicrobial activity against CTX-M ESBL producing Escherichia coli isolated from ICU patient blood assessed as resistant isolates by broth microdilution method
Streptococcus pneumoniae [2] = assay: Antimicrobial activity against penicillin-resistant Streptococcus pneumoniae isolated from ICU patient respiratory tract assessed as resistant isolates by broth microdilution method
[3] = test system: Staphylococcus epidermidis; assay: Antimicrobial activity against methicillin-resistant Staphylococcus epidermidis isolated from ICU patient urine assessed as resistant isolates by broth microdilution method
[4] = test system: Staphylococcus epidermidis; assay: Antimicrobial activity against methicillin-susceptible Staphylococcus epidermidis isolated from ICU patient respiratory tract assessed as resistant isolates by broth microdilution method
[5] = test system: Staphylococcus epidermidis; assay: Antimicrobial activity against methicillin-susceptible Staphylococcus epidermidis isolated from ICU patient blood assessed as resistant isolates by broth microdilution method
Pseudomonas aeruginosa [6] = assay: Antimicrobial activity against carbapenem-resistant Pseudomonas aeruginosa assessed as resistant isolates by broth microdilution method
Haemophilus influenzae [7] = assay: Antimicrobial activity against Haemophilus influenzae isolated from ICU patient respiratory tract assessed as resistant isolates by broth microdilution method
[8] = test system: Staphylococcus epidermidis; assay: Antimicrobial activity against methicillin-resistant Staphylococcus epidermidis isolated from ICU patient wound assessed as resistant isolates by broth microdilution method
Escherichia coli [9] = assay: Antimicrobial activity against CTX-M ESBL producing Escherichia coli assessed as resistant isolates by broth microdilution method
Pseudomonas aeruginosa [10] = assay: Antimicrobial activity against carbapenem-resistant Pseudomonas aeruginosa isolated from ICU patient respiratory tract assessed as resistant isolates by broth microdilution method
Klebsiella pneumoniae [11] = assay: Antimicrobial activity against ESBL producing Klebsiella pneumoniae isolated from ICU patient wound assessed as resistant isolates by broth microdilution method
Staphylococcus aureus [12] = assay: Antimicrobial activity against methicillin-resistant Staphylococcus aureus isolated from ICU patient urine assessed as resistant isolates by broth microdilution method
Streptococcus pneumoniae [13] = assay: Antimicrobial activity against penicillin-resistant Streptococcus pneumoniae isolated from ICU patient blood assessed as resistant isolates by broth microdilution method
Enterococcus sp. [14] = assay: Antimicrobial activity against vancomycin-resistant Enterococcus sp. isolated from ICU patient urine assessed as resistant isolates by broth microdilution method
Enterococcus sp. [15] = assay: Antimicrobial activity against vancomycin-resistant Enterococcus sp. isolated from ICU patient blood assessed as resistant isolates by broth microdilution method
Klebsiella pneumoniae [16] = assay: Antimicrobial activity against ESBL producing Klebsiella pneumoniae isolated from ICU patient blood assessed as resistant isolates by broth microdilution method
[17] = test system: Staphylococcus epidermidis; assay: Antimicrobial activity against methicillin-resistant Staphylococcus epidermidis assessed as resistant isolates by broth microdilution method
[18] = test system: Staphylococcus epidermidis; assay: Antimicrobial activity against methicillin-susceptible Staphylococcus epidermidis isolated from ICU patient urine assessed as resistant isolates by broth microdilution method
Staphylococcus aureus [19] = assay: Antimicrobial activity against methicillin-susceptible Staphylococcus aureus isolated from ICU patient urine assessed as resistant isolates by broth microdilution method
Haemophilus influenzae [20] = assay: Antimicrobial activity against Haemophilus influenzae isolated from ICU patient blood assessed as resistant isolates by broth microdilution method
Staphylococcus aureus [21] = assay: Antimicrobial activity against methicillin-susceptible Staphylococcus aureus isolated from ICU patient blood assessed as resistant isolates by broth microdilution method
Streptococcus pneumoniae [22] = assay: Antimicrobial activity against penicillin-resistant Streptococcus pneumoniae isolated from ICU patient wound assessed as resistant isolates by broth microdilution method
Pseudomonas aeruginosa [23] = assay: Antimicrobial activity against carbapenem-resistant Pseudomonas aeruginosa isolated from ICU patient urine assessed as resistant isolates by broth microdilution method
[24] = test system: Staphylococcus epidermidis; assay: Antimicrobial activity against methicillin-susceptible Staphylococcus epidermidis isolated from ICU patient wound assessed as resistant isolates by broth microdilution method
Klebsiella pneumoniae [25] = assay: Antimicrobial activity against ESBL producing Klebsiella pneumoniae isolated from ICU patient respiratory tract assessed as resistant isolates by broth microdilution method
Escherichia coli [26] = assay: Antimicrobial activity against CTX-M ESBL producing Escherichia coli isolated from ICU patient respiratory tract assessed as resistant isolates by broth microdilution method
Streptococcus pneumoniae [27] = assay: Antimicrobial activity against penicillin-resistant Streptococcus pneumoniae assessed as resistant isolates by broth microdilution method
Klebsiella pneumoniae [28] = assay: Antimicrobial activity against ESBL producing Klebsiella pneumoniae isolated from ICU patient urine assessed as resistant isolates by broth microdilution method
Haemophilus influenzae [29] = assay: Antimicrobial activity against Haemophilus influenzae isolated from ICU patient wound assessed as resistant isolates by broth microdilution method
Klebsiella pneumoniae [30] = assay: Antimicrobial activity against ESBL producing Klebsiella pneumoniae assessed as resistant isolates by broth microdilution method
Staphylococcus aureus [31] = assay: Antimicrobial activity against methicillin-susceptible Staphylococcus aureus isolated from ICU patient wound assessed as resistant isolates by broth microdilution method
Pseudomonas aeruginosa [32] = assay: Antimicrobial activity against carbapenem-resistant Pseudomonas aeruginosa isolated from ICU patient wound assessed as resistant isolates by broth microdilution method
[33] = test system: Staphylococcus epidermidis; assay: Antimicrobial activity against methicillin-susceptible Staphylococcus epidermidis assessed as resistant isolates by broth microdilution method
Pseudomonas aeruginosa [34] = assay: Antimicrobial activity against carbapenem-resistant Pseudomonas aeruginosa isolated from ICU patient blood assessed as resistant isolates by broth microdilution method
Enterococcus sp. [35] = assay: Antimicrobial activity against vancomycin-resistant Enterococcus sp. isolated from ICU patient wound assessed as resistant isolates by broth microdilution method
Staphylococcus aureus [36] = assay: Antimicrobial activity against methicillin-resistant Staphylococcus aureus isolated from ICU patient wound assessed as resistant isolates by broth microdilution method
Escherichia coli [37] = assay: Antimicrobial activity against CTX-M ESBL producing Escherichia coli isolated from ICU patient urine assessed as resistant isolates by broth microdilution method
Escherichia coli [38] = assay: Antimicrobial activity against CTX-M ESBL producing Escherichia coli isolated from ICU patient wound assessed as resistant isolates by broth microdilution method
Enterococcus sp. [39] = assay: Antimicrobial activity against vancomycin-resistant Enterococcus sp. isolated from ICU patient respiratory tract assessed as resistant isolates by broth microdilution method
[40] = test system: Staphylococcus epidermidis; assay: Antimicrobial activity against methicillin-resistant Staphylococcus epidermidis isolated from ICU patient blood assessed as resistant isolates by broth microdilution method
Haemophilus influenzae [41] = assay: Antimicrobial activity against Haemophilus influenzae assessed as resistant isolates by broth microdilution method
Staphylococcus aureus [42] = assay: Antimicrobial activity against methicillin-susceptible Staphylococcus aureus isolated from ICU patient respiratory tract assessed as resistant isolates by broth microdilution method
Enterococcus sp. [43] = assay: Antimicrobial activity against vancomycin-resistant Enterococcus sp. assessed as resistant isolates by broth microdilution method
Staphylococcus aureus [44] = assay: Antimicrobial activity against methicillin-resistant Staphylococcus aureus assessed as resistant isolates by broth microdilution method
Enterobacter cloacae [45] = assay: Antimicrobial activity against carbapenem-resistant Enterobacter cloacae isolated from ICU patient urine assessed as resistant isolates by broth microdilution method
Enterobacter cloacae [46] = assay: Antimicrobial activity against carbapenem-resistant Enterobacter cloacae isolated from ICU patient wound assessed as resistant isolates by broth microdilution method
Staphylococcus aureus [47] = assay: Antimicrobial activity against methicillin-resistant Staphylococcus aureus isolated from ICU patient respiratory tract assessed as resistant isolates by broth microdilution method
Enterobacter cloacae [48] = assay: Antimicrobial activity against carbapenem-resistant Enterobacter cloacae isolated from ICU patient blood assessed as resistant isolates by broth microdilution method
Enterobacter cloacae [49] = assay: Antimicrobial activity against carbapenem-resistant Enterobacter cloacae isolated from ICU patient respiratory tract assessed as resistant isolates by broth microdilution method
Enterobacter cloacae [50] = assay: Antimicrobial activity against carbapenem-resistant Enterobacter cloacae assessed as resistant isolates by broth microdilution method
Staphylococcus aureus [51] = assay: Antimicrobial activity against methicillin-resistant Staphylococcus aureus isolated from ICU patient blood assessed as resistant isolates by broth microdilution method
Staphylococcus aureus [52] = assay: Antimicrobial activity against methicillin-susceptible Staphylococcus aureus assessed as resistant isolates by broth microdilution method

SMILES: O=C(O)c1cn(C2CC2)c2cc(N3CCNCC3)c(F)cc2c1=O [CIPROFLOXACIN]
- Activity (Escherichia coli [1]): 23.3%
- Activity (Streptococcus pneumoniae [2]): 2.6%
- Activity [3]: 100%
- Activity [4]: 100%
- Activity [5]: 44.6%
- Activity (Pseudomonas aeruginosa [6]): 4%
- Activity (Haemophilus influenzae [7]): 0%
- Activity [8]: 100%
- Activity (Escherichia coli [9]): 21.1%
- Activity (Pseudomonas aeruginosa [10]): 4.1%
- Activity (Klebsiella pneumoniae [11]): 28.3%
- Activity (Staphylococcus aureus [12]): 100%
- Activity (Streptococcus pneumoniae [13]): 0%
- Activity (Enterococcus sp. [14]): 54.7%
- Activity (Enterococcus sp. [15]): 58.1%
- Activity (Klebsiella pneumoniae [16]): 24.2%
- Activity [17]: 100%
- Activity [18]: 80%
- Activity (Staphylococcus aureus [19]): 20%
- Activity (Haemophilus influenzae [20]): 0%
- Activity (Staphylococcus aureus [21]): 6.9%
- Activity (Streptococcus pneumoniae [22]): 0%
- Activity (Pseudomonas aeruginosa [23]): 0%
- Activity [24]: 70.8%
- Activity (Klebsiella pneumoniae [25]): 20.8%
- Activity (Escherichia coli [26]): 21.3%
- Activity (Streptococcus pneumoniae [27]): 2.1%
- Activity (Klebsiella pneumoniae [28]): 37.8%
- Activity (Haemophilus influenzae [29]): 0%
- Activity (Klebsiella pneumoniae [30]): 23.8%
- Activity (Staphylococcus aureus [31]): 8%
- Activity (Pseudomonas aeruginosa [32]): 11.5%
- Activity [33]: 54.7%
- Activity (Pseudomonas aeruginosa [34]): 3.9%
- Activity (Enterococcus sp. [35]): 50%
- Activity (Staphylococcus aureus [36]): 92.6%
- Activity (Escherichia coli [37]): 19.8%
- Activity (Escherichia coli [38]): 24.1%
- Activity (Enterococcus sp. [39]): 46.7%
- Activity [40]: 100%
- Activity (Haemophilus influenzae [41]): 0%
- Activity (Staphylococcus aureus [42]): 7.5%
- Activity (Enterococcus sp. [43]): 53.4%

SMILES: C[C@H]1COc2c(N3CCN(C)CC3)c(F)cc3c(=O)c(C(=O)O)cn1c23.C[C@H]1COc2c(N3CCN(C)CC3)c(F)cc3c(=O)c(C(=O)O)cn1c23.O [LEVOFLOXACIN]
- Activity (Staphylococcus aureus [44]): 91.8%
- Activity (Escherichia coli [1]): 23.3%
- Activity (Enterobacter cloacae [45]): 6.3%
- Activity (Streptococcus pneumoniae [2]): 2.1%
- Activity [3]: 100%
- Activity [4]: 100%
- Activity [5]: 42.9%
- Activity (Pseudomonas aeruginosa [6]): 3.6%
- Activity (Haemophilus influenzae [7]): 0%
- Activity [8]: 100%
- Activity (Enterobacter cloacae [46]): 5.9%
- Activity (Escherichia coli [9]): 21.1%
- Activity (Pseudomonas aeruginosa [10]): 3.3%
- Activity (Staphylococcus aureus [12]): 100%
- Activity (Streptococcus pneumoniae [13]): 0%
- Activity (Staphylococcus aureus [47]): 91.5%
- Activity (Enterococcus sp. [14]): 52%
- Activity (Enterococcus sp. [15]): 56.8%
- Activity (Enterobacter cloacae [48]): 4.2%
- Activity (Klebsiella pneumoniae [16]): 24.2%
- Activity [17]: 100%
- Activity [18]: 80%
- Activity (Staphylococcus aureus [19]): 20%
- Activity (Haemophilus influenzae [20]): 0%
- Activity (Staphylococcus aureus [21]): 6.9%
- Activity (Enterobacter cloacae [49]): 0%
- Activity (Enterobacter cloacae [50]): 1.8%
- Activity (Streptococcus pneumoniae [22]): 0%
- Activity (Pseudomonas aeruginosa [23]): 0%
- Activity [24]: 66.7%
- Activity (Klebsiella pneumoniae [25]): 21.5%
- Activity (Staphylococcus aureus [51]): 91.8%
- Activity (Escherichia coli [26]): 21.3%
- Activity (Streptococcus pneumoniae [27]): 1.7%
- Activity (Klebsiella pneumoniae [28]): 40%
- Activity (Haemophilus influenzae [29]): 0%
- Activity (Klebsiella pneumoniae [30]): 25.5%
- Activity (Staphylococcus aureus [31]): 7.1%
- Activity (Pseudomonas aeruginosa [32]): 11.5%
- Activity [33]: 52.3%
- Activity (Pseudomonas aeruginosa [34]): 3.9%
- Activity (Enterococcus sp. [35]): 45.8%
- Activity (Staphylococcus aureus [36]): 92.6%
- Activity (Escherichia coli [37]): 19.8%
- Activity (Staphylococcus aureus [52]): 7.3%
- Activity (Escherichia coli [38]): 24.1%
- Activity (Enterococcus sp. [39]): 46.7%
- Activity [40]: 100%
- Activity (Haemophilus influenzae [41]): 0%
- Activity (Staphylococcus aureus [42]): 6.9%
- Activity (Enterococcus sp. [43]): 51%

SMILES: CO/N=C(\C(=O)N[C@@H]1C(=O)N2C(C(=O)[O-])=C(C[N+]3(C)CCCC3)CS[C@H]12)c1csc(N)n1
- Activity (Staphylococcus aureus [44]): 100%
- Activity (Escherichia coli [1]): 1.4%
- Activity (Streptococcus pneumoniae [2]): 0%
- Activity [3]: 100%
- Activity [4]: 0%
- Activity [5]: 8.9%
- Activity (Pseudomonas aeruginosa [6]): 0%
- Activity (Haemophilus influenzae [7]): 0%
- Activity [8]: 100%
- Activity (Escherichia coli [9]): 0.7%
- Activity (Pseudomonas aeruginosa [10]): 0%
- Activity (Klebsiella pneumoniae [11]): 18.9%
- Activity (Staphylococcus aureus [12]): 100%
- Activity (Streptococcus pneumoniae [13]): 0%
- Activity (Staphylococcus aureus [47]): 100%
- Activity (Klebsiella pneumoniae [16]): 9.1%
- Activity [17]: 100%
- Activity [18]: 20%
- Activity (Staphylococcus aureus [19]): 0%
- Activity (Haemophilus influenzae [20]): 0%
- Activity (Staphylococcus aureus [21]): 0%
- Activity (Streptococcus pneumoniae [22]): 0%
- Activity (Pseudomonas aeruginosa [23]): 0%
- Activity [24]: 33.3%
- Activity (Klebsiella pneumoniae [25]): 7.6%
- Activity (Staphylococcus aureus [51]): 100%
- Activity (Escherichia coli [26]): 0.8%
- Activity (Streptococcus pneumoniae [27]): 0%
- Activity (Klebsiella pneumoniae [28]): 17.8%
- Activity (Haemophilus influenzae [29]): 0%
- Activity (Klebsiella pneumoniae [30]): 10.2%
- Activity (Staphylococcus aureus [31]): 0%
- Activity (Pseudomonas aeruginosa [32]): 0%
- Activity [33]: 16.3%
- Activity (Pseudomonas aeruginosa [34]): 0%
- Activity (Staphylococcus aureus [36]): 100%
- Activity (Escherichia coli [37]): 0.4%
- Activity (Staphylococcus aureus [52]): 0%
- Activity [40]: 100%
- Activity (Haemophilus influenzae [41]): 0%
- Activity (Staphylococcus aureus [42]): 0%
